Measurements taken from ChEMBL document CHEMBL1130086, “Potent HIV protease inhibitors containing a novel (hydroxyethyl)amide isostere” (J Med Chem, 1997).

Assays:
[1] = system: Human immunodeficiency virus 1; experiment: Inhibitory concentration against HIV-1 strain 111B in acutely infected C8166 T cells; assay type: functional, organism-based; details: Human immunodeficiency virus 1, C8166
C8166 = experiment: Inhibitory concentration against HIV-2 rod strain in acutely infected C8166 T cells; assay type: functional, cell-based; details: Homo sapiens
[2] = molecular target: T1, Human immunodeficiency virus type 1 protease (Human immunodeficiency virus 1, UniProt Q72874); experiment: Inhibitory concentration against recombinant HIV-1 111B protease expressed from Escherichia coli was tested by HPLC based assay
[3] = molecular target: T1, Human immunodeficiency virus type 1 protease; experiment: binding affinity against HIV-1 111B strain in protease
[4] = molecular target: T1, Human immunodeficiency virus type 1 protease; experiment: Inhibitory concentration against recombinant HIV-1 protease expressed in Escherichia coli was tested by HPLC based assay
[5] = molecular target: T1, Human immunodeficiency virus type 1 protease; experiment: binding affinity against HIV-1 protease

| Structure (SMILES) | EC50 [1] [nM] | IC50 [4] [nM] | also measured |
| --- | --- | --- | --- |
| CC(C)[C@H](NC(=O)c1ccc2ccccc2n1)C(=O)N[C@@H](Cc1ccccc1)[C@H](O)CN1CC[C@@H](OCc2ccncc2)C[C@H]1C(=O)NC(C)(C)C | 5 |  | EC50 (C8166): 25 nM; IC50 [2]: 4 nM; Ki [3]: 0.031 nM |
| CCC(CC)NC(=O)C[C@@H](C(=O)NC[C@@H](O)[C@H](Cc1ccccc1)NC(=O)[C@@H](NC(=O)c1cnc2ccccc2n1)[C@H](C)O)C(C)(C)C | 13 | 3 |  |
| CCC(CC)NC(=O)C[C@@H](C(=O)NC[C@@H](O)[C@H](Cc1ccccc1)NC(=O)[C@@H](NC(=O)c1ccc2ccccc2n1)[C@H](C)O)C(C)(C)C | 7 | 3.6 |  |
| CCC(CC)NC(=O)C[C@@H](C(=O)NC[C@@H](O)[C@H](Cc1ccccc1)NC(=O)[C@@H](NC(=O)OCc1ccccc1)[C@H](C)O)C(C)(C)C | 165 | 8.2 |  |
| CC(C)[C@H](NC(=O)OCc1ccccc1)C(=O)N[C@@H](Cc1ccccc1)[C@H](O)CN1CCCC[C@H]1C(=O)NC(C)(C)C |  | 62 |  |
| CC(C)[C@H](NC(=O)OCc1ccccc1)C(=O)N[C@@H](Cc1ccccc1)[C@H](O)CNC(=O)C[C@H](C(=O)NC(C)(C)C)C(C)(C)C |  | 4850 |  |
| CCC(CC)NC(=O)C[C@@H](C(=O)NC[C@@H](O)[C@H](Cc1ccccc1)NC(=O)[C@@H](NC(=O)c1ccc2ccccc2n1)C(C)C)C(C)(C)C | 3.7 | 2.5 | Ki [5]: 0.0075 nM |
| CC(C)[C@H](NC(=O)OCc1ccccc1)C(=O)N[C@@H](Cc1ccccc1)[C@H](O)CNC(=O)[C@@H](CC(=O)NC(C)(C)C)C(C)(C)C |  | 25 |  |
| CC(C)(C)[C@@H](CC(=O)Nc1ccccc1)C(=O)NC[C@@H](O)[C@H](Cc1ccccc1)NC(=O)OCc1ccccc1 |  | 14 |  |
| CC(C)[C@H](NC(=O)OCc1ccccc1)C(=O)N[C@@H](Cc1ccccc1)[C@H](O)CNC(=O)C1CCCC[C@H]1C(=O)NC(C)(C)C (some centres undefined) |  | 140 |  |
| CC(C)(C)[C@@H](CC(=O)NC1CCCCC1)C(=O)NC[C@@H](O)[C@H](Cc1ccccc1)NC(=O)OCc1ccccc1 |  | 135 |  |
| CCC(CC)NC(=O)C[C@@H](C(=O)NC[C@@H](O)[C@H](Cc1ccccc1)NC(=O)[C@H](CC(N)=O)NC(=O)c1ccc2ccccc2n1)C(C)(C)C | 11 | 2.2 |  |
| CCC(CC)NC(=O)C[C@@H](C(=O)NC[C@@H](O)[C@H](Cc1ccccc1)NC(=O)[C@@H](NC(=O)c1cnc2ccccc2n1)C(C)C)C(C)(C)C | 5.8 | 2.2 |  |
| CC(C)[C@H](NC(=O)OCc1ccccc1)C(=O)N[C@@H](Cc1ccccc1)[C@H](O)CNC(=O)CCC(=O)NC(C)(C)C |  | 8250 |  |
| CCCC(CCC)NC(=O)C[C@@H](C(=O)NC[C@@H](O)[C@H](Cc1ccccc1)NC(=O)OCc1ccccc1)C(C)(C)C |  | 39 |  |
| CC(C)[C@H](NC(=O)OCc1ccccc1)C(=O)N[C@@H](Cc1ccccc1)[C@H](O)CNC(=O)[C@H](CC(=O)NC(C)(C)C)C(C)(C)C | 15 | 3 |  |
| CCC(CC)NC(=O)C[C@@H](C(=O)NC[C@@H](O)[C@H](Cc1ccccc1)NC(=O)[C@@H](NC(=O)OCc1ccccc1)C(C)C)C(C)(C)C | 9.3 | 2.9 |  |
| CCC(CC)NC(=O)C[C@@H](C(=O)NC[C@@H](O)[C@H](Cc1ccccc1)NC(=O)OCc1ccccc1)C(C)(C)C |  | 15 |  |
| CC(C)[C@H](NC(=O)OCc1ccccc1)C(=O)N[C@@H](Cc1ccccc1)[C@H](O)CNC(=O)C[C@@H](C(=O)NC(C)(C)C)C(C)(C)C |  | 125 |  |
| CC(C)(C)NC(=O)C[C@@H](C(=O)NC[C@@H](O)[C@H](Cc1ccccc1)NC(=O)OCc1ccccc1)C(C)(C)C |  | 19 |  |
| CCC(CC)NC(=O)C[C@@H](C(=O)NC[C@@H](O)[C@H](Cc1ccccc1)NC(=O)[C@H](CC(N)=O)NC(=O)OCc1ccccc1)C(C)(C)C | 127 | 3.8 |  |
| CC(C)[C@H](NC(=O)OCc1ccccc1)C(=O)N[C@@H](Cc1ccccc1)[C@@H](O)CNC(=O)[C@H](CC(=O)NC(C)(C)C)C(C)(C)C |  | 50 |  |
| CCC(CC)NC(=O)C[C@@H](C(=O)NC[C@@H](O)[C@H](Cc1ccccc1)NC(=O)[C@H](CC(N)=O)NC(=O)c1cnc2ccccc2n1)C(C)(C)C | 35 | 1.9 |  |
| CC(C)C(NC(=O)C[C@@H](C(=O)NC[C@@H](O)[C@H](Cc1ccccc1)NC(=O)OCc1ccccc1)C(C)(C)C)C(C)C |  | 58 |  |
| CC(C)NC(=O)C[C@@H](C(=O)NC[C@@H](O)[C@H](Cc1ccccc1)NC(=O)OCc1ccccc1)C(C)(C)C |  | 19 |  |
